Experimental findings from US7998713B2, “Treatment of biomass to obtain ethanol” (E. I. du Pont de Nemours and Company, priority 2005, dated 2011) are described below.

This test deals with Z. mobilis strain 8b. In words: Effect of acetamide and acetic acid on Zymomonas growth (toxicity test in shake flasks). It counts as cell-based, Zymomonas mobilis. As to conditions: pH 6.0, 30° C., 150 rpm, FIG. 1. The text has this: Fermentation medium was composed of 10 g/L yeast extract, 2 g/L KH2PO4, 70 g/L glucose, 40 g/L xylose and 0.1 M MES buffer.
Where [1] appears, read: medium supplemented with 6 g/L acetamide vs unsupplemented control.
[2] abbreviates: medium supplemented with 7.2 g/L acetic acid vs unsupplemented control.

For the compound `CC(N)=O` [acetamide], under setting [1], the “final density of Z. mobilis” value was “no influence” and the “growth rate of Z. mobilis” value is “no influence”.
For `CC(=O)O` [acetic acid], under setting [2], the “cell yield (as measured by dry cell mass)” value is “lower cell yield” and the “growth rate of Z. mobilis” value was “reduced growth rate”.
